Assay results: paper PMC5597121, “The human bitter taste receptor T2R38 is broadly tuned for bacterial compounds” (PLoS ONE, 2017)
Values joined by “and” are separate entries in the source; they are usually repeats but may differ in a detail not shown here. Equal values may be shown once.

Columns and labels:
T2R38 = target: T1, T2R38 (Homo sapiens, UniProt P59533, A49P/I296V); assay: Single cell calcium imaging, Peakrapid cells (Gα16gustducin44) transiently transfected with T2R38; assay type: cell-based
T1 construct: leader: first 45 amino acids of rat somatostatin receptor subtype 3 (SSTR3) (N); expressed in transfected cells; host or cells: Peakrapid cells (HEK293 derivative, ATCC CRL-2828) stably expressing Galpha16gustducin44, co-transfected with human RTP4
T1 sequence (P59533 1-333 A49P/I296V): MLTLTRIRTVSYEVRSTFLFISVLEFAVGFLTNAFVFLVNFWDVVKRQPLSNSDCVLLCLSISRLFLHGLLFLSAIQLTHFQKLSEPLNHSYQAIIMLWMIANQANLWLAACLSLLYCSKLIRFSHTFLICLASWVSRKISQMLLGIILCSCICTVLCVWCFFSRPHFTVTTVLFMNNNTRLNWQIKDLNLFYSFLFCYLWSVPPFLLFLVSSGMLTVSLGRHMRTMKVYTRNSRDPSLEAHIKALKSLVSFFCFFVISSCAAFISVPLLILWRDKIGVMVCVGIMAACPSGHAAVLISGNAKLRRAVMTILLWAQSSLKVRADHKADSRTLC
How it was run: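 HEK293-derived Peakrapid cells stably expressing Gα16gustducin44 were transiently co-transfected with T2R38 (PAV or AVI variant) plus RTP4, then loaded with Fluo4 40 h later. Calcium responses were imaged 1/s for 30 s after ligand injection. Responding-cell surface was normalized to 0.1 mM PTC, with EC50 from four-parameter fits; testing began at 100 mM.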

[1] = Solubility in aqueous / buffer solution; assay type: physicochemical
Experimental: 32 volatile metabolites of pathogens (S1 Fig) were selected from the literature. All compounds were dissolved in buffer solution, except C4HSL dissolved in buffer solution, DMSO or ethanol, C12HSL dissolved in DMSO or ethanol, and Agr D1 thiolactone dissolved in DMSO.

CC[C@H](C)[C@H](NC(=O)[C@H](Cc1ccccc1)NC(=O)[C@H](CC(=O)O)NC(=O)[C@H](CCCNC(=N)N)NC(=O)[C@H](Cc1ccccc1)NC(=O)[C@H](Cc1ccccc1)NC(=O)[C@H](CCCCN)NC(=O)[C@H](CO)NC(=O)[C@H](CC(C)C)NC(=O)[C@H](CCCNC(=N)N)NC(=O)[C@H](CCSC)NC(=O)[C@@H](N)CCC(=O)O)C(=O)N[C@@H](CC(C)C)C(=O)N[C@@H](CCC(N)=O)C(=O)N[C@@H](CCCNC(=N)N)C(=O)N[C@@H](CCCCN)C(=O)N[C@@H](CCCCN)C(=O)O [CSP-1]
agonist activity on T2R38 (in words) (T2R38): inactive
response of T2R38 transfected cells (S6_fig raw data) (T2R38; CSP-1 0.5 mM, T2R38, individual values of experiments 1-3): 37.13% and 3.20% and 100.83%
solubility [1]: soluble at 0.5 mM in the buffer solution
